Source: BigSolDB 2.1

O=P1(c2cc(O)ccc2O)Oc2ccccc2-c2ccccc21 (configuration not stated)
Settings | solubility (mole fraction)
in 2-ethoxyethanol, 293.15 K | 0.000896
in 2-ethoxyethanol, 298.15 K | 0.0012
in 2-ethoxyethanol, 302.98 K | 0.00157
in 2-ethoxyethanol, 308 K | 0.00207
in 2-ethoxyethanol, 313 K | 0.00248
in 2-ethoxyethanol, 317.8 K | 0.00347
in 2-ethoxyethanol, 322.7 K | 0.00439
in 2-ethoxyethanol, 327.65 K | 0.00556
in 2-ethoxyethanol, 332.65 K | 0.00702
in 2-ethoxyethanol, 337.6 K | 0.00896
in 2-ethoxyethanol, 342.58 K | 0.0109
in 2-ethoxyethanol, 347.4 K | 0.0134
in 2-ethoxyethanol, 352.83 K | 0.0168
in 2-ethoxyethanol, 357.7 K | 0.0207
in 2-ethoxyethanol, 362.67 K | 0.0249
in 2-ethoxyethanol, 367.65 K | 0.0301
in acetone, 292.15 K | 0.00153
in acetone, 297.15 K | 0.00182
in acetone, 302.15 K | 0.00226
in acetone, 307.85 K | 0.00304
in acetone, 312.9 K | 0.0037
in acetone, 317.65 K | 0.00427
in acetone, 322.6 K | 0.00551
in ethanol, 293.15 K | 0.00205
in ethanol, 298.1 K | 0.00224
in ethanol, 303.05 K | 0.00241
in ethanol, 307.95 K | 0.0027
in ethanol, 312.95 K | 0.00282
in ethanol, 317.8 K | 0.00309
in ethanol, 322.8 K | 0.00332
in ethanol, 327.85 K | 0.00352
in methanol, 293.15 K | 0.00107
in methanol, 298 K | 0.00128
in methanol, 302.9 K | 0.0015
in methanol, 307.85 K | 0.00182
in methanol, 312.84 K | 0.00227
in methanol, 317.6 K | 0.0026
in methanol, 322.63 K | 0.00292
in water, 303 K | 0.000139
in water, 307.95 K | 0.000143
in water, 312.85 K | 0.000151
in water, 317.6 K | 0.000155
in water, 322.45 K | 0.000165
in water, 327.65 K | 0.000168
in water, 332.5 K | 0.000175
in water, 337.55 K | 0.000184
in water, 342.35 K | 0.000189
